The test system of assay [1] is guinea pig bronchioles constricted by carbachol. The assay can be described thus: Bronchodilator Test Method II, in vitro perfused guinea pig lung. As for the experimental part:
In this method bronchodilator activity in vitro was determined by testing the effect of graded doses of the test compounds on guinea pig bronchioles constricted by carbachol, using the technique reported by Sollman and von Oettingen, Proc. Soc, Exp. Biol. Med., 25,692 (1928) as modified by Tainter, Pedden, and James, J. Pharm. Exp. Ther., 51, 371 (1934) and by Luduena, von Euler, Tullar, and Lands, Arch. intern. Pharmacol., III, 392 (1957).

Assay [2] deals with carbachol- or histamine-induced bronchoconstriction. Kind of assay: Bronchodilator Test Method I, anesthetized dog, intravenous activity. The settings on record: Canis lupus familiaris, read-out: Bronchodilatation; for inhibition in vivo at 0.03 mg/kg: 30 mcg/kg i.v.; for inhibition in vivo at 0.24 mg/kg: 240 mcg/kg i.v.; for inhibition in vivo at 0.0028 mg/kg: 2.8 mcg/kg i.v.; for inhibition in vivo at 0.0056 mg/kg: 5.6 mcg/kg i.v.; for inhibition in vivo at 0.0012 mg/kg: 1.2 mcg/kg i.v.; for inhibition in vivo at 0.006 mg/kg: 6.0 mcg/kg i.v.; for inhibition in vivo at 0.025 mg/kg: 25 mcg/kg i.v. Format: in vivo. Here is the method: Bronchodilator activity was tested in anesthetized dogs (Test Method I) and in vitro on the perfused guinea pig lung (Test Method II), using the following pharmacological test procedures
Male and female dogs weighing 9-18 kg. each were anesthetized with pentobarbital sodium (30 mg./kg. i.v.). Each animal, with thorax opened at the midsternum, was maintained under artificial ventilation using a constant volume pump (250 ml./stroke; 10 to 12 strokes per minute) attached to the tracheal cannula. The flow of air was controlled by a glass or plastic valve which closed and opened respectively on inflow and outflow of the air to and from the tracheal cannula. Bronchoconstriction and/or bronchodilatation were measured from changes in the basal airway pressure reflected by a transducer attached to the sidearm of the cannula relayed to a polygraph.
Control bronchoconstrictions were induced by intravenous injections of carbachol (choline chloride carbamate) in doses ranging from 4 to 6 micrograms per kilogram or histamine diphosphate in doses ranging from 35 to 45 micrograms per kilogram.
Solutions of the test compounds were prepared in distilled water or in saline (for infusion). […] These solutions were then tested for bronchodilator activity in three ways, viz. (1) by mixing a graded dose of test compound with the constant does of carbachol or histamine in a syringe and injecting the mixture into the femoral vein of the dog, (2) by producing the bronchoconstriction first and injecting the test compound at the time of maximum constriction, and (3) by injecting the test compound first followed by carbachol or histamine in 1-10 minutes. Injections were repeated at 20-30 minutes. Bronchodilator values were obtained by measuring the areas under the response polygraph tracings (the first 5 munite period) of carbachol or histamine controls and of the experimentals using a planimeter. Decrease in the area thus measured was expressed as a percent bronchodilatation in reference to the area of control carbachol or histamine constriction. The mean bronchodilatations (the reductions in constrictions) were plotted against the doses administered and the mean effective dose (ED50) was estimated in micrograms/kilogram from the does-response curves. Blood pressure recording was taken from the femoral artery using an arterial transducer relayed to a polygraph.

Read-outs that look alike come from different tables or passages of the source.

As to “3,4-bis(p-toluyloxy)-alpha-[1-(tert-butylaminomethyl)propyl]benzyl alcohol hydrochloride [Example 144]”, the “Duration, Mean” value in assay [1] (dose 500 mcg (base)) amounted to 83 ± 26.8 min.

Turning to `CC(C)(C)NCC(O)c1ccc(OC(=O)C(C)(C)C)c(O)c1` (stereo not drawn) [Example 59, 3-hydroxy-4-(pivalyloxy)-alpha-(tert-butylaminomethyl)benzyl alcohol methanesulfonate], the ED50 in assay [1] (carbachol (Doryl) 1:5 million) is 1.2 µg (base). Moreover, the “Duration, Mean” value in assay [1] (dose 3.2 mcg (base)) worked out at 25 ± 5.6 min.

Turning to `CC(C)C(=O)Oc1ccc(C(O)CNC(C)(C)C)cc1OC(=O)C(C)C.Cl` (stereo not drawn) [Example 2, 3,4-bis(isobutyryloxy)-alpha-(tert-butylaminomethyl)benzyl alcohol hydrochloride], in assay [1] (carbachol (Doryl) 1:5 million), the ED50 was 0.28 µg (base). The “Duration, Mean” value in assay [1] (dose 0.5 mcg (base)) came out at 9 ± 1.1 min.

As to `Cc1ccc(C(=O)Oc2ccc(C(O)CNC(C)C)cc2OC(=O)c2ccc(C)cc2)cc1` (stereo not drawn) [Example 89, 3,4-bis(p-toluyloxy)-alpha-(isopropylaminomethyl)benzyl alcohol], in assay [1] (carbachol (Doryl) 1:5 million), the ED50 is 6.4 µg (base). The “Duration, Mean” value in assay [1] (dose 15 mcg (base)) was 125 ± 31 min.

With `CCC(NC1CCCC1)C(O)c1ccc(OC(=O)CC(C)C)c(OC(=O)CC(C)C)c1.Cl` (stereo not drawn) [Example 138, 3,4-bis(isovaleryloxy)-alpha-[1-(cyclopentylamino)propyl]benzylalcohol hydrochloride], the inhibition in vivo at 0.03 mg/kg in assay [2] (5 min, 5 min) was 38%; in assay [2] (0.5 h, 30 min), 0%. For the same molecule, the inhibition in vivo at 0.24 mg/kg came to 49% in assay [2] (5 min, 5 min); 62% in assay [2] (0.5 h, 30 min); 42% in assay [2] (1 h, 60 min); 46% in assay [2] (2 h, 120 min). For the same molecule, in assay [1] (carbachol (Doryl) 1:5 million), the ED50 is 0.46 µg (base). Also, the “Duration, Mean” value in assay [1] (dose 1.5 mcg (base)) is 25.4 ± 3.5 min.

For the molecule `COc1ccc(C(=O)Oc2ccc(C(O)CNC(C)(C)C)cc2OC(=O)c2ccccc2)cc1` (stereo not drawn) [Example 143, 3-benzoyloxy-4-(p-anisoyloxy)-alpha-(tert-butylaminomethyl)benzyl alcohol], the ED50 in assay [1] (Doryl conc. 1:10 million) is 1.53 µg (base). Besides, in assay [1] (dose 2 mcg (base), Doryl conc. 1:10 million), the “Duration, Mean” value worked out at 29.2 ± 10.2 min.

For `CC(C)(C)NCC(O)c1ccc(OC(=O)C2(C)CC2)c(OC(=O)C2(C)CC2)c1.Cl` (stereo not drawn) [Example 13, 3,4-bis(1-methylcyclopropanecarbonyloxy)-alpha-(tert-butylaminomethyl)benzyl alcohol hydrochloride], the inhibition in vivo at 0.0028 mg/kg in assay [2] (2 min, 2 min) came out at 52%; in assay [2] (0.5 h, 30 min) it was 48%; in assay [2] (1 h, 60 min), 0%. Moreover, the inhibition in vivo at 0.0056 mg/kg was 69% in assay [2] (2 min, 2 min); 34% in assay [2] (0.5 h, 30 min); 10% in assay [2] (1 h, 60 min). Moreover, the ED50 in assay [1] (carbachol (Doryl) 1:5 million) was 0.45 µg (base). The “Duration, Mean” value in assay [1] (dose 0.79 mcg (base)) turned out to be 15 ± 1.7 min.

Take `CC(=O)Oc1ccc(C(O)CNC(C)(C)C)cc1OC(=O)c1ccccc1C` (stereo not drawn) [Example 147, 3-(o-toluyloxy)-4-acetoxy-alpha-(tert-butylaminomethyl)benzyl alcohol methanesulfonate]: the inhibition in vivo at 0.0012 mg/kg in assay [2] (5 min, 5 min) came to 36%; in assay [2] (0.5 h, 30 min), 3%; in assay [2] (1 h, 60 min) it was 0%. Also, the inhibition in vivo at 0.006 mg/kg was 77% in assay [2] (5 min, 5 min); 9% in assay [2] (0.5 h, 30 min); 0% in assay [2] (1 h, 60 min). The inhibition in vivo at 0.025 mg/kg in assay [2] (5 min, 5 min) came out at 100%; in assay [2] (0.5 h, 30 min) it was 32%; in assay [2] (1 h, 60 min) it was 12%; in assay [2] (2 h, 120 min), 4%. Besides, the ED50 in assay [1] (Doryl conc. 1:10 million) is 1.9 µg (base). In addition, in assay [1] (dose 5 mcg (base), Doryl conc. 1:10 million), the “Duration, Mean” value turned out to be 15.9 ± 3.3 min.

The record behind these values is patent USRE30241E, “Esters of 3-(hydroxy or hydroxymethyl)-4-hydroxyphenyl aminomethyl ketones” (Sterling Drug Inc., priority 1970, dated 1980).
